Where two headings read alike, the source gives them in different places.
Legend:
HMEC1 = test: Cell viability assay (MTT), HMEC1; type: cell-based, Human; conditions: 10% FBS; for IC50: MTT, 6-day treatment, 1% DMSO
Procedure: (§1) Table 12: 6-day cell viability assay (MTT) in the presence of 10% Fetal Bovine Serum and 1% DMSO, in HMEC1, HCT116, MDA-MB-231, MCF7 and NIH3T3 cell lines. 3 10^3 to 15 10^3 cells were seeded in 48-well plates in growth medium containing 10% FBS, with or without various concentrations of test compounds. Cell cultures were fed every 3 days with the appropriate media. Cell viability was determined on day 6. Data were analyzed and IC50s were calculated from dose-response curves using GraphPad Prism. Results summarized in the tables are mean±SEM of 1 to 8 independent experiments.
(§2) In order to determine a compound's effect on cell viability, microculture tetrazolium assays (MTT) were performed as described by Carmichael et al. (1996) with modifications. Four human tumoral cell lines, namely HCT116 colon adenocarcinoma, H460 lung carcinoma, MCF-7 and MDA-MB-231 breast carcinoma cell lines, DLD1 colorectal adenocarcinoma, HeLa adenocarcinoma, HepG2 hepatocellular carcinoma. 3 immortalized but non tumorigenic cell lines, namely NIH3T3 mouse fibroblasts (American Type Culture Collection) and primary hepatocytes (Biopredic international), cultured according to their recommendations together with Human Microvasculature Endothelial Cell line HMEC1 (National Center for Infectious Diseases). Briefly, cells were seeded in 48-well plates 24 hours before drug addition. Cells were treated with 0 to 200 μM (11 concentrations) of compound solubilized in DMSO, adjusting the final concentration of DMSO to 1% in the well. 16 hours, and three or six days after treatment, 0.5 mg/ml MTT (Sigma) was added to the medium and cells were incubated for 1-5 hours at 37° C. before solubilization of formazan crystals in 100% DMSO. Absorbance was measured using a spectrophotometer at a wavelength of 550 nm. Data was analyzed using the GraphPad Prism software (GraphPad Software, Inc.), and IC50 (dose leading to 50% cell death) was calculated from the dose-response curves.

HCT116 = test: Cell viability assay (MTT), HCT116; type: cell-based, human; conditions: 1% DMSO
Procedure: as §1
(§3) Table 13: 6-day cell viability assay (MTT) in the presence of 0.5% Fetal Bovine Serum and 1% DMSO, in HCT116 and MDA-MB-231 cell lines. 7.5 10^4 to 15 10^4 cells were seeded in 48-well plates in growth medium containing 10% FBS, with or without various concentrations of test compounds. Cell cultures were fed every 3 days with the appropriate media. Cell viability was determined on day 6. Data were analyzed and IC50s were calculated from dose-response curves using GraphPad Prism. Results summarized in the tables are mean±SEM of 1 to 2 independent experiments.
(§4) Table 14: 3-day cell viability assay (MTT) in the presence of 10% Fetal Bovine Serum and 1% DMSO, in DLD1, HCT116, MDA-MB-231, MCF7 and HeLa cells. 7.5 10^3 to 1.5 10^4 cells were seeded in 48-well plates in growth medium containing 10% FBS, with or without various concentrations of test compounds. Data were analyzed and IC50s were calculated from dose-response curves using GraphPad Prism. Results summarized in the tables are mean±SEM of 1 to 7 independent experiments.
(§5) Table 15: 16-hour cell viability assay (MTT) in the presence of 10% Fetal Bovine Serum and 1% DMSO, in HCT116, MDA-MB-231, NIH3T3, HepG2 and primary hepatocytes. 5 10^4 to 10 10^4 cells were seeded in 48-well plates in growth medium containing 10% FBS, with or without various concentrations of test compounds. Data were analyzed and IC50s were calculated from dose-reponse curves using GraphPad Prism. Results summarized in the tables are mean±SEM of 1 to 2 independent experiments.
as §2

MDA-MB-231 = test: Cell viability assay (MTT), MDA-MB-231; type: cell-based, human; conditions: 1% DMSO
Procedure: as §1, §3, §4, §5, §2

NIH 3T3 = test: Cell viability assay (MTT), NIH 3T3; type: cell-based, mouse; conditions: 10% FBS, 1% DMSO
Procedure: as §1, §5, §2

[1] = 10% FBS, 6-day treatment, read-out: IC50 μM, MDA-MB-231
[2] = Homo sapiens, HCT-116, 144 h, 10% FBS, 6-day treatment
[3] = Homo sapiens, MDA-MB-231, 144 h, 10% FBS, 6-day treatment, read-out: IC50 μM, MDA-MB-231
[4] = Mus musculus, NIH3T3, 144 h, 6-day treatment

IC50 (HCT116; 10% FBS, 6-day treatment) [µM] | IC50 (HCT116; [2]) [µM] | Structure (SMILES) | IC50 (HMEC1; Homo sapiens, HMEC-1, 144 h) [µM] | IC50 (NIH 3T3; [4]) [µM] | also measured
0.8 | – | COc1cc2c(cc1O)CC[C@@H]1[C@@H]2CC[C@]2(C)[C@@H](O)CC[C@@H]12 [2ME, 2-Methoxyestradiol, reference compound] | – | – | IC50 (HMEC1): 2.1 µM; IC50 (HCT116; 0.5% FBS, 6-day treatment): 3.1 µM; IC50 (HCT116; 10% FBS, 16-hours treatment): 128 µM; IC50 (MDA-MB-231; 0.5% FBS, 6-day treatment, read-out: IC50 (μM), MDA-MB-231): 15.4 µM; IC50 (MDA-MB-231; [1]): 0.3 µM; IC50 (MDA-MB-231; 10% FBS, 16-hours treatment, read-out: IC50 μM, MDA-MB-231): > 100 µM; IC50 (NIH 3T3; 6-day treatment): 2.4 µM; IC50 (NIH 3T3; 16-hours treatment): > 150 µM
– | 12.5 | CN1CCN(Cc2cc(=O)c(OCCCCCOc3ccnc4cc(C(F)(F)F)ccc34)co2)CC1 [EHT 0079, 5-(5-(7-(Trifluoromethyl)quinolin-4-yloxy)pentyloxy)-2-((4-methylpiperazin-1-yl)methyl)-4H-pyran-4-one] | 28.6 | – | –
– | – | O=c1cc(CN2CCOCC2)occ1OCCOCCSc1ccnc2cc(C(F)(F)F)ccc12 [EHT 0371, 5-(2-(2-(7-(Trifluoromethyl)quinolin-4-ylthio)ethoxy)ethoxy)-2-(morpholinomethyl)-4H-pyran-4-one] | 88.7 | – | –
– | – | CC(C)(C)C(=O)N1CCN(Cc2cc(=O)c(OCCCCCSc3ccnc4cc(C(F)(F)F)ccc34)co2)CC1 [EHT 0785, 5-(5-(7-(Trifluoromethyl)quinolin-4-ylthio)pentyloxy)-2-((4-(pivaloyl)piperazin-1-yl)methyl)-4H-pyran-4-one] | < 10 | 11.6 | difference of activity in HMEC1 cells as compared to HCT116 cells (HMEC1; MTT 6 days, compounds most active in HCT116): 5 fold; IC50 (HMEC1): 9.6 µM; IC50 (MDA-MB-231; [1]): 8.2 µM; IC50 (MDA-MB-231; [3]): < 9 µM
– | 18 | O=c1cc(CN2CCOCC2)occ1OCCCCCOc1ccnc2ccc(C(F)(F)F)cc12 [EHT 1426, 5-(5-(6-(Trifluoromethyl)quinolin-4-yloxy)pentyloxy)-2-(morpholinomethyl)-4H-pyran-4-one] | – | – | –
2.4 | < 4 | Cc1cc(OCCCCCOc2coc(COC3CCCCO3)cc2=O)c2cc(F)ccc2n1 (centres unmarked) [EHT 1593, 5-[5-(6-Fluoro-2-methyl-quinolin-4-yloxy)-pentyloxy]-2-(tetrahydro-pyran-2-yloxymethyl)-4H-pyran-4-one] | 13.2 | 21.5 | –
– | 14.1 | O=c1cc(CN2CCOCC2)occ1OCCCCCOc1ccnc2cc(C(F)(F)F)ccc12 [EHT 3411, 5-(5-(7-(Trifluoromethyl)quinolin-4-yloxy)pentyloxy)-2-(morpholinomethyl)-4H-pyran-4-one] | 62.4 | – | –
– | – | CC(C)(C)NC(=O)N1CCN(Cc2cc(=O)c(OCCCCCSc3ccnc4cc(C(F)(F)F)ccc34)co2)CC1 [EHT 3664, 4-((5-(5-(7-(Trifluoromethyl)quinolin-4-ylthio)pentyloxy)-4-oxo-4H-pyran-2-yl)methyl)-N-tert-butylpiperazine-1-carboxamide] | < 10 | 9.8 | IC50 (HMEC1): 10 µM; IC50 (MDA-MB-231; [1]): 6.3 µM; IC50 (MDA-MB-231; [3]): < 9 µM
– | ~200 | O=c1cc(CN2CCOCC2)occ1OCCCCCOc1ncnc2ccccc12 [EHT 3726, 5-(5-(Quinazolin-4-yloxy)pentyloxy)-2-(morpholinomethyl)-4H-pyran-4-one] | – | – | –
2.1 | < 4 | O=c1cc(COC2CCCCO2)occ1OCCCCCOc1ccnc2cc(C(F)(F)F)ccc12 (centres unmarked) [EHT 3788, 2-(Tetrahydro-pyran-2-yloxymethyl)-5-[5-(7-trifluoromethyl-quinolin-4-yloxy)-pentyloxy]-pyran-4-one] | < 10 | 8.8 | IC50 (HMEC1): 7.1 µM
2.3 | < 4 | CNC(=O)N1CCN(Cc2cc(=O)c(OCCCCCSc3ccnc4cc(C(F)(F)F)ccc34)co2)CC1 [EHT 4495, 4-((5-(5-(7-(Trifluoromethyl)quinolin-4-ylthio)pentyloxy)-4-oxo-4H-pyran-2-yl)methyl)-N-methylpiperazine-1-carboxamide] | – | – | –
– | 5.5 | O=c1cc(CN2CCOCC2)occ1OCCCCCOc1ccnc2c(C(F)(F)F)cccc12 [EHT 4687, 5-(5-(8-(Trifluoromethyl)quinolin-4-yloxy)pentyloxy)-2-(morpholinomethyl)-4H-pyran-4-one] | 39.1 | – | –
2.1 | < 4 | O=c1cc(CN2CCSCC2)occ1OCCCCCSc1ccnc2cc(C(F)(F)F)ccc12 [EHT 5430, 5-(5-(7-(Trifluoromethyl)quinolin-4-ylthio)pentyloxy)-2-(thiomorpholino-methyl)-4H-pyran-4-one] | 20.1 | – | –
– | 8.4 | CCCc1ccc2cccnc2c1OCCCCCOc1coc(COC2CCCCO2)cc1=O (centres unmarked) [EHT 5810, 5-[5-(7-Propyl-quinolin-8-yloxy)-pentyloxy]-2-(tetrahydro-pyran-2-yloxymethyl)-4H-pyran-4-one] | 15.1 | – | –
– | 6.1 | CN1CCN(Cc2cc(=O)c(OCCCCCOc3ccnc4c(C(F)(F)F)cccc34)co2)CC1 [EHT 5847, 5-(5-(8-(Trifluoromethyl)quinolin-4-yloxy)pentyloxy)-2-((4-methylpiperazin-1-yl)methyl)-4H-pyran-4-one] | 31.6 | – | –
2 | < 4 | O=c1cc(COC2CCCCO2)occ1OCCCCCOc1cccc2ccsc12 (centres unmarked) [EHT 6060, 5-[5-(Benzo[b]thiophen-7-yloxy)-pentyloxy]-2-(tetrahydro-pyran-2-yloxymethyl)-4H-pyran-4-one] | 19.1 | – | –
– | ~200 | CCOC(=O)c1cnc2cc(C(F)(F)F)ccc2c1OCCCCCOc1coc(CN2CCN(C)CC2)cc1=O [EHT 8791, 4-[5-(6-(4-Methyl-piperazin-1-ylmethyl)-4-oxo-4H-pyran-3-yloxy)-pentyloxy]-7-trifluoromethyl-quinoline-3-carboxylic acid ethyl ester] | ~200 | – | –
– | – | O=c1cc(COC2CCCCO2)occ1OCCCCCCCSc1ccnc2cc(C(F)(F)F)ccc12 (centres unmarked) [EHT 8883, 5-(7-(7-(Trifluoromethyl)quinolin-4-ylthio)heptyloxy)-2-((tetrahydro-2H-pyran-2-yloxy)methyl)-4H-pyran-4-one] | < 10 | – | IC50 (HMEC1): 8 µM
– | – | CC(C)(C)OC(=O)N1CCN(Cc2cc(=O)c(OCCCCCSc3ccnc4cc(C(F)(F)F)ccc34)co2)CC1 [EHT 9358, tert-Butyl 4-((5-(5-(7-(trifluoromethyl)quinolin-4-ylthio)pentyloxy)-4-oxo-4H-pyran-2-yl)methyl)piperazine-1-carboxylate] | 18.4 | 7.7 | IC50 (HCT116; Homo sapiens, HCT-116, 144 h, 0.5% FBS, 6-day treatment): 1 µM
– | 0.0055 | CC(=O)O[C@H]1C(=O)[C@@]2(C)[C@H]([C@H](OC(=O)c3ccccc3)[C@]3(O)C[C@H](OC(=O)[C@H](O)[C@@H](NC(=O)c4ccccc4)c4ccccc4)C(C)=C1C3(C)C)[C@]1(OC(C)=O)CO[C@@H]1C[C@@H]2O [Taxol, Paclitaxel, reference compound] | 0.0029 | ~0.05 | IC50 (MDA-MB-231; Homo sapiens, MDA-MB-231, 72 h, 10% FBS, 3-day treatment, read-out: IC50, MDA-MB-231 (row labelled Taxol (nM))): 4.25e-06 µM; IC50 (MDA-MB-231; [3]): 0.0036 µM

— patent US7514432B2, “Compounds and methods of treating cell proliferative diseases, retinopathies and arthritis” (Exonhit Therapeutics SA, priority 2003, dated 2009)
